Results from PubChem BioAssay (NCI).
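Cells were grown in 96-well plates and exposed to each compound for 48 hours at five concentrations; endpoints were interpolated linearly between bracketing concentrations, or set to the highest concentration if not reached. TGI denotes the concentration required for complete inhibition of growth.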

Key:
Test in all cases: inhibition of tumour cell growth, NCI panel, 48 h
[1] = tested on: TK-10 renal
[2] = tested on: NCI-H522 lung
[3] = tested on: DLD-1 colon
[4] = tested on: RXF-631 renal
[5] = tested on: OVCAR-3 ovarian
[6] = tested on: RPMI-8226 leukemia
[7] = tested on: OVCAR-8 ovarian
[8] = tested on: 786-0 renal
[9] = tested on: DMS 114 small cell lung
[10] = tested on: CAKI-1 renal
[11] = tested on: XF 498 CNS
[12] = tested on: HOP-92 NSCLC
[13] = tested on: SK-MEL-2 melanoma
[14] = tested on: M14 melanoma
[15] = tested on: SF-539 CNS
[16] = tested on: EKVX NSCLC
[17] = tested on: SNB-19 CNS
[18] = tested on: U251 CNS
[19] = tested on: LXFL 529 NSCLC
[20] = tested on: KM20L2 colon
[21] = tested on: SNB-78 CNS
[22] = tested on: NCI-H226 lung
[23] = tested on: COLO 205 colon
[24] = tested on: HOP-62 NSCLC
[25] = tested on: ACHN renal
[26] = tested on: HCT-116 colon
[27] = tested on: NCI-H460 lung
[28] = tested on: M19-MEL melanoma
[29] = tested on: KM12 colon
[30] = tested on: HT29 colon
[31] = tested on: LOX IMVI melanoma
[32] = tested on: SK-OV-3 ovarian
[33] = tested on: UACC-257 melanoma
[34] = tested on: SNB-75 CNS
[35] = tested on: SR leukemia
[36] = tested on: NCI-H23 lung
[37] = tested on: SK-MEL-28 melanoma
[38] = tested on: SW-620 colon
[39] = tested on: A549 NSCLC
[40] = tested on: CCRF-CEM leukemia
[41] = tested on: HCC-2998 colon
[42] = tested on: IGROV1 ovarian
[43] = tested on: SF-295 CNS
[44] = tested on: HL-60(TB) leukemia
[45] = tested on: UACC-62 melanoma
[46] = tested on: HCT-15 colon
[47] = tested on: SK-MEL-5 melanoma
[48] = tested on: K-562 leukemia
[49] = tested on: MALME-3M melanoma
[50] = tested on: HOP-18 NSCLC
[51] = tested on: DMS 273 small cell lung
[52] = tested on: OVCAR-5 ovarian
[53] = tested on: OVCAR-4 ovarian
[54] = tested on: UO-31 renal
[55] = tested on: SN12C renal
[56] = tested on: MOLT-4 leukemia
[57] = tested on: RXF 393 renal
[58] = tested on: SF-268 CNS
[59] = tested on: A498 renal

Measured: TGI

Cc1cccc(-c2cc(=O)c3cc(C)c(C)c(C(=O)O)c3o2)c1
> 100 µM: [1] | [2] | [3] | [4] | [5] | [6] | [7] | [8] | [9] | [10] | [11] | [12] | [13] | [14] | [15] | [16] | [17] | [18] | [19] | [20] | [21] | [22] | [23] | [24] | [25] | [26] | [27] | [28] | [29] | [30] | [31] | [32] | [33] | [34] | [35] | [36] | [37] | [38] | [39] | [40] | [41] | [42] | [43] | [44] | [45] | [46] | [47] | [48] | [49] | [50] | [51] | [52] | [53] | [54] | [55] | [56]

O=C1CCC[C@]2(CCCC(=O)N2)C1
> 100 µM: [1] | [2] | [3] | [4] | [5] | [6] | [7] | [8] | [9] | [10] | [11] | [12] | [13] | [57] | [14] | [15] | [16] | [17] | [18] | [19] | [20] | [21] | [22] | [23] | [24] | [25] | [26] | [27] | [28] | [29] | [30] | [31] | [32] | [33] | [34] | [35] | [36] | [37] | [38] | [39] | [40] | [41] | [42] | [43] | [44] | [45] | [46] | [58] | [47] | [48] | [49] | [50] | [51] | [52] | [53] | [54] | [59] | [55] | [56]
